Patent US20080306037A1, “Product for Use in the Prevention and Treatment of Cardiovascular Diseases, Cancer and Chronic Inflammatory Diseases” (priority 2005, published 2008)

System: NF-kB transcription factor
Experiment: Luciferase trial: inhibition of NF-kB activation by TNFα in 5.1 linfoid cells (Jurkat clone, HIV-LTR luciferase)
Assay type: cell-based
Settings: concentration 125 μg/ml, 30 min pre-incubation, TNFα 2 ng/ml 6 hours
Procedure: Cells. A cellular line 5.1, that is a clone derived from Jurkat stably transfected with a plasmid that contains the gene of the luciferase channelled by the HIV-LTR promoter, an exponential growth is maintained in a RPMI 1640 medium supplemented with a 10% of an foetal bovine serum deactivated by heat, 2 mM of L-glutamine, 1 mM HEPES, antibiotics and 200 μg/ml of G418. Luciferase Trial. […] Next, the cells were damaged in 25 mM tris-phosphate pH 7,8, 8 mM MgCl2 1 mM DTT, 1% Triton X-100, y 7% glycerol. The luciferase activity was measured using Autolumat LB 9501 following the instructions of the luciferase trial kit and the protein concentration was measured by the Bradford method. In order eliminate the background noise caused by the lysis solution, this value was deducted in each value of the experiment and the activation was expressed as proportional induction compared to the untreated cells. Cells. The 5.1 cellular line was used, as and how described in example 1. Luciferase Trial. The 5.1 cellular line was pre-incubated for 30 minutes with oleic acid in the concentrations as stated, followed by stimulation with TNFα (2 ng/ml) for 6 hours. The NF-kB transcriptional activity was measured in the same way as in example 1. Cells. The 5.1 cellular line was used, as and how described in example 1. Luciferase Trial. […] The NF-kB transcriptional activity was measured in the same way as in example 1.

CCCCCCCC/C=C\CCCCCCCC(=O)O [oleic acid]
activation index (NF-kB transcription factor activation, luciferase, proportional induction compared to untreated cells): 7-8
